Measurements reported in patent US7314861B2, “Melanin-concentrating hormone analogs” (priority 2001, dated 2008).
Where a SMILES comes first, the peptide text is derived from it. Bridges are numbered along the chain shown (N, C = ends).

Assays:
human MCH-1R = human MCH-1R (Homo sapiens, UniProt Q99705); test: Aequorin bioluminescence functional assay, MCH-1R; conditions: for MCH-1R Activation %: % Activation at 10 μM, aequorin functional assay
Procedure: (§1) The aequorin bioluminescence assay can be used to measure the activity of G protein-coupled receptors that couple through the Gα protein subunit family consisting of Gq and G11. Such coupling leads to phospholipase C activation, intracellular calcium mobilization and protein kinase C activation.
(§2) Following approximately 40 hours of expression the apo-aequorin in the cells was charged for 4 hours with coelenterazine (10 μM) under reducing conditions (300 μM reduced glutathione) in ECB buffer (140 mM NaCl, 20 mM KCl, 20 mM HEPES-NaOH [pH=7.4], 5 mM glucose, 1 mM MgCl2, 1 mM CaCl2, 0.1 mg/ml bovine serum albumin).
(§3) The cells were harvested, washed once in ECB medium and resuspended to 500,000 cells/ml. 100 μl of cell suspension (corresponding to 5×10^4 cells) was then injected into the test plate containing MCH or MCH analogs, and the integrated light emission was recorded over 30 seconds, in 0.5 second units. 20 μL of lysis buffer (0.1% final Triton X-100 concentration) was then injected and the integrated light emission recorded over 10 seconds, in 0.5 second units. The “fractional response” values for each well were calculated by taking the ratio of the integrated response to the initial challenge to the total integrated luminescence including the Triton X-100 lysis response.

human MCH-R2 = human MCH-R2 (Homo sapiens, UniProt Q969V1); test: Aequorin bioluminescence functional assay, MCH-2R; conditions: for EC50: MCH-2R EC50 (nM), 293-AEQ17 cells; for EC50 / MCH-2R Activation %: aequorin functional assay; for MCH-2R Activation %: % Activation at 10 μM; for selective activity at MCH-2R over MCH-1R: greater binding and/or activation at MCH-2R than at MCH-1R
Procedure: as §1, §2, §3

human MCH-2R = human MCH-2R (Homo sapiens, UniProt Q969V1); test: Radiolabeled MCH-R binding assay (SPA based), MCH-2R; conditions: MCH-2R IC50 (nM)
Procedure: Cell membranes were prepared on ice. Each T-75 flask was rinsed twice with 10 ml of Enzyme-free Cell Dissociation Buffer (Specialty Media, Lavallette, N.J.), and the cell monolayer was detached in an additional 10 ml of Enzyme-free Cell Dissociation Buffer by incubation at room temperature for 10 minutes. Dissociated cells were centrifuged (500×g for 10 minutes at 4° C.), resuspended in 5 ml homogenization buffer (10 mM Tris-HCl, pH 7.4, 0.01 mM Pefabloc, 10 μM phosphoramidon, 40 μg/ml bacitracin) and then homogenized using a glass homogenizer (10-15 strokes). The homogenate was centrifuged for 10 minutes (1,000×g at 4° C.). The resulting supernatant was then centrifuged at 38,700×g for 15 minutes at 4° C. Pelleted membranes were resuspended (passed through 25 gauge needle 5 times), snap-frozen on liquid nitrogen, and stored at −80° C. until use.
For the SPA-based assay, WGA-PVT beads (NEN Life Sciences Products) were resuspended in Dulbecco's PBS with calcium and magnesium (500 mg beads in 4 ml PBS). […] The suspension was mixed gently for 20 minutes, 12.3 ml of assay buffer and protease inhibitors were added (final concentration given): 2 μg/ml leupeptin, 10 μM phosphoramidon, 40 μg/ml bacitracin, 5 μg/ml aprotinin, 0.1 mM Pefabloc.
Coated beads were kept on ice until use. […] Binding reactions were allowed to proceed at room temperature for 3 hours. Quantitation was performed by scintillation counting (TopCount device).

[1] = Table 1, inhibition of [125I]-human MCH (Phe13, Tyr19) binding

human MCH-R2, sequence (Q969V1 whole entry): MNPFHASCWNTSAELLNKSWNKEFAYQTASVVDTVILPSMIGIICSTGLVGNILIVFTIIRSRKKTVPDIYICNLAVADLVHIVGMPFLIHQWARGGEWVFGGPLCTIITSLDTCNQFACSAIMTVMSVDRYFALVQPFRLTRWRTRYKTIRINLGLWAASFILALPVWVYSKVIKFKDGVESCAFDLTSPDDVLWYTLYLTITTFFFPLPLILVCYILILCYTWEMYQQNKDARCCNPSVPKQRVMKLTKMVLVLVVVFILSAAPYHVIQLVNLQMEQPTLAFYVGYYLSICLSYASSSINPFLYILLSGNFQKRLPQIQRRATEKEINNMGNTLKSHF
human MCH-2R, sequence (Q969V1 whole entry): as above
human MCH-1R, sequence (Q99705 whole entry): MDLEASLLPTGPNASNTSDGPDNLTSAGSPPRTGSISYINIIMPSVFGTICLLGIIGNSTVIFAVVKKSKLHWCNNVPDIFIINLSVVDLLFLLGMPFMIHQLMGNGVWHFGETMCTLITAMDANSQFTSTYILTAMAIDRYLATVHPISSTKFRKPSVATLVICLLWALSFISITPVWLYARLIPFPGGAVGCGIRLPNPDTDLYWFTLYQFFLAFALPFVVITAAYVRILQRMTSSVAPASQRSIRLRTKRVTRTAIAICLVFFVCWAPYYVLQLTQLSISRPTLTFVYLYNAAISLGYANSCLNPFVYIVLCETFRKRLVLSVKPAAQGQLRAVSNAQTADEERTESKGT

SMILES: CSCC[C@@H]1NC(=O)[C@@H](NC(=O)[C@H](CCCNC(=N)N)NC(C)=O)CSSC[C@@H](C(N)=O)NC(=O)[C@@H]2CCCN2C(=O)[C@H](CCCNC(=N)N)NC(=O)[C@H](Cc2ccccc2)NC(=O)[C@H](C(C)C)NC(=O)[C@H](CCCNC(=N)N)NC(=O)CNC(=O)[C@H](CC(C)C)NC1=O [compound 27]
- MCH-1R Activation % (human MCH-1R; Table 1): 96%
- EC50 (human MCH-R2; Table 1): 12 nM
- MCH-2R Activation % (human MCH-R2; Table 1): 94%
- IC50 (human MCH-2R; [1]): 1.5 nM

SMILES: CSCC[C@@H]1NC(=O)[C@@H](NC(=O)[C@H](CCCNC(=N)N)NC(=O)[C@H](CC(C)C)NC(=O)[C@H](CCSC)NC(=O)[C@H](CC(=O)O)NC(=O)[C@H](Cc2ccccc2)NC(=O)[C@@H](N)CC(=O)O)CSSC[C@@H](C(=O)N[C@@H](Cc2c[nH]c3ccccc23)C(=O)N[C@@H](CCC(N)=O)C(=O)N[C@H](C(=O)O)C(C)C)NC(=O)[C@H](C)NC(=O)[C@H](CCCNC(=N)N)NC(=O)[C@H](Cc2ccc(O)cc2)NC(=O)[C@H](C(C)C)NC(=O)[C@H](CCCNC(=N)N)NC(=O)CNC(=O)[C@H](CC(C)C)NC1=O [compound 53] (H-DFDMLRCMLGRVYRACWQV-OH; disulfide 7-16; N-terminus and C-terminus assumed)
- MCH-1R Activation % (human MCH-1R; Table 3): 99%
- MCH-2R Activation % (human MCH-R2; Table 3): 96%
- IC50 (human MCH-2R; Table 3): 19 nM

SMILES: CCCC[C@@H]1NC(=O)CNC(=O)[C@H](CC(C)C)NC(=O)[C@H](CCSC)NC(=O)[C@@H](NC(=O)[C@H](CCCNC(=N)N)NC(C)=O)CSSC[C@@H](C(N)=O)NC(=O)[C@@H]2CCCN2C(=O)[C@H](CCCNC(=N)N)NC(=O)[C@H](Cc2ccc(O)cc2)NC(=O)[C@H](C(C)C)NC1=O [compound 26]
- EC50 (human MCH-1R): > 1000 nM
- MCH-2R Activation % (human MCH-R2; Table 1): 34%
- selective activity at MCH-2R over MCH-1R (human MCH-R2): selectively active
- IC50 (human MCH-2R; [1]): 9 nM

SMILES: CSCC[C@@H]1NC(=O)[C@@H](NC(=O)[C@H](CCCNC(=N)N)NC(=O)[C@H](CC(C)C)NC(=O)[C@H](CCSC)NC(=O)[C@H](CC(=O)O)NC(=O)[C@H](Cc2ccccc2)NC(=O)[C@@H](N)CC(=O)O)CSSC[C@@H](C(=O)N[C@@H](Cc2c[nH]c3ccccc23)C(=O)N[C@@H](CCC(N)=O)C(=O)N[C@@H](C)C(=O)O)NC(=O)[C@@H]2CCCN2C(=O)[C@H](CCCNC(=N)N)NC(=O)[C@H](Cc2ccc(O)cc2)NC(=O)[C@H](C(C)C)NC(=O)[C@H](CCCNC(=N)N)NC(=O)CNC(=O)[C@H](CC(C)C)NC1=O [compound 56] (H-DFDMLRCMLGRVYRPCWQA-OH; disulfide 7-16; N-terminus and C-terminus assumed)
- MCH-1R Activation % (human MCH-1R; Table 3): 100%
- MCH-2R Activation % (human MCH-R2; Table 3): 99%

SMILES: CSCC[C@@H]1NC(=O)[C@@H](NC(=O)[C@H](CCCNC(=N)N)NC(=O)[C@H](CC(C)C)NC(=O)[C@H](CCSC)NC(=O)[C@H](CC(=O)O)NC(=O)[C@H](Cc2ccccc2)NC(=O)[C@@H](N)CC(=O)O)CSSC[C@@H](C(=O)N[C@@H](C)C(=O)N[C@@H](CCC(N)=O)C(=O)N[C@H](C(=O)O)C(C)C)NC(=O)[C@@H]2CCCN2C(=O)[C@H](CCCNC(=N)N)NC(=O)[C@H](Cc2ccc(O)cc2)NC(=O)[C@H](C(C)C)NC(=O)[C@H](CCCNC(=N)N)NC(=O)CNC(=O)[C@H](CC(C)C)NC1=O [compound 54] (H-DFDMLRCMLGRVYRPCAQV-OH; disulfide 7-16; N-terminus and C-terminus assumed)
- MCH-1R Activation % (human MCH-1R; Table 3): 100%
- MCH-2R Activation % (human MCH-R2; Table 3): 95%

SMILES: CSCC[C@@H]1NC(=O)[C@@H](NC(=O)[C@H](CCCNC(=N)N)NC(C)=O)CSSC[C@@H](C(N)=O)NC(=O)[C@@H]2CCCN2C(=O)[C@H](CCCNC(=N)N)NC(=O)[C@H](Cc2ccc(O)cc2)NC(=O)[C@H](C(C)C)NC(=O)[C@H](CCCNC(=N)N)NC(=O)[C@@H](C)NC(=O)[C@H](CC(C)C)NC1=O [compound 13]
- MCH-1R Activation % (human MCH-1R; Table 1): 40%
- EC50 (human MCH-R2; Table 1): 16 nM
- MCH-2R Activation % (human MCH-R2; Table 1): 103%
- selective activity at MCH-2R over MCH-1R (human MCH-R2): selectively active
